In PubChem BioAssay (NCI):
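Compound exposure: 48 hours, 5 concentrations, 96-well plates. Here, GI50 denotes the concentration required for 50% inhibition of growth. TGI marks complete inhibition of growth.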

Experiments:
Assay in all cases: NCI tumour cell line growth inhibition, 48 h
[1] = test system: A498 renal
[2] = test system: K-562 leukemia
[3] = test system: SNB-75 CNS
[4] = test system: M14 melanoma
[5] = test system: MDA-MB-435
[6] = test system: SK-MEL-2 melanoma
[7] = test system: MDA-N
[8] = test system: KM12 colon
[9] = test system: P388 leukemia
[10] = test system: BT-549 breast
[11] = test system: SNB-78 CNS
[12] = test system: NCI-H522 lung
[13] = test system: MCF7 breast
[14] = test system: ACHN renal
[15] = test system: U251 CNS
[16] = test system: UACC-257 melanoma
[17] = test system: SK-MEL-28 melanoma
[18] = test system: SR leukemia
[19] = test system: PC-3 prostate
[20] = test system: HOP-92 NSCLC
[21] = test system: HCC-2998 colon
[22] = test system: 786-0 renal
[23] = test system: OVCAR-5 ovarian
[24] = test system: COLO 205 colon
[25] = test system: T-47D breast
[26] = test system: DLD-1 colon
[27] = test system: IGROV1 ovarian
[28] = test system: SN12K1 renal
[29] = test system: OVCAR-8 ovarian
[30] = test system: HOP-62 NSCLC
[31] = test system: TK-10 renal
[32] = test system: DU-145 prostate
[33] = test system: EKVX NSCLC
[34] = test system: NCI-H226 lung
[35] = test system: SF-539 CNS
[36] = test system: SN12C renal
[37] = test system: SW-620 colon
[38] = test system: HOP-18 NSCLC
[39] = test system: SF-295 CNS
[40] = test system: DMS 273 small cell lung
[41] = test system: NCI/ADR-RES ovarian
[42] = test system: RXF 393 renal
[43] = test system: NCI-H460 lung
[44] = test system: OVCAR-4 ovarian
[45] = test system: SNB-19 CNS
[46] = test system: UACC-62 melanoma
[47] = test system: P388/ADR leukemia
[48] = test system: MDA-MB-231 breast
[49] = test system: LOX IMVI melanoma
[50] = test system: HL-60(TB) leukemia
[51] = test system: CAKI-1 renal
[52] = test system: NCI-H23 lung
[53] = test system: HT29 colon
[54] = test system: OVCAR-3 ovarian
[55] = test system: SK-OV-3 ovarian
[56] = test system: CCRF-CEM leukemia
[57] = test system: HCT-15 colon
[58] = test system: M19-MEL melanoma
[59] = test system: MOLT-4 leukemia
[60] = test system: A549 NSCLC
[61] = test system: MALME-3M melanoma
[62] = test system: XF 498 CNS
[63] = test system: KM20L2 colon
[64] = test system: UO-31 renal
[65] = test system: SF-268 CNS
[66] = test system: RPMI-8226 leukemia
[67] = test system: SK-MEL-5 melanoma
[68] = test system: HS 578T breast
[69] = test system: HCT-116 colon
[70] = test system: LXFL 529 NSCLC
[71] = test system: DMS 114 small cell lung
[72] = test system: RXF-631 renal

What does the source list for `COc1cc([C@@H]2c3cc4c(cc3[C@@H](OC3OC5CO[C@@H](c6cccs6)OC5C(O)C3O)[C@H]3COC(=O)[C@H]23)OCO4)cc(OC)c1O` (stereo partly specified)?
TGI [1]: 3.51 µM; TGI [2]: 17.2 µM; TGI [3]: 4 µM; TGI [4]: 3.71 µM; TGI [5]: 10.7 µM; TGI [6]: 4.37 µM; TGI [7]: 10.4 µM; TGI [8]: 5.06 µM; TGI [9]: 1.93 µM; TGI [10]: 2.53 µM; TGI [11]: 10.4 µM; TGI [12]: 4.16 µM; TGI [13]: 15.6 µM; TGI [14]: 2.12 µM; TGI [15]: 2.47 µM; TGI [16]: 12.3 µM; TGI [17]: 12.4 µM; TGI [18]: 3.28 µM; TGI [19]: 21.9 µM; TGI [20]: 1.76 µM; TGI [21]: 3.47 µM; TGI [22]: 1.19 µM; TGI [23]: 11.7 µM; TGI [24]: 5.06 µM; TGI [25]: 4.21 µM; TGI [26]: 11.3 µM; TGI [27]: 13.3 µM; TGI [28]: 1.84 µM; TGI [29]: 3.5 µM; TGI [30]: 0.866 µM; TGI [31]: 6.89 µM; TGI [32]: 2.12 µM; TGI [33]: 4.33 µM; TGI [34]: 3.05 µM; TGI [35]: 2.2 µM; TGI [36]: 2.33 µM; TGI [37]: 9.5 µM; TGI [38]: 14.2 µM; TGI [39]: 1.2 µM; TGI [40]: 3.03 µM; TGI [41]: 25 µM; TGI [42]: 3.38 µM; TGI [43]: 2.59 µM; TGI [44]: 16.7 µM; TGI [45]: 9.24 µM; TGI [46]: 2.71 µM; TGI [47]: 14.3 µM; TGI [48]: 3.81 µM; TGI [49]: 4.4 µM; TGI [50]: 1.35 µM; TGI [51]: 2 µM; TGI [52]: 4.44 µM; TGI [53]: 11.7 µM; TGI [54]: 6.89 µM; TGI [55]: 1.93 µM; TGI [56]: 3.89 µM; TGI [57]: 11.3 µM; TGI [58]: 12.4 µM; GI50 [59]: 0.0161 µM; TGI [59]: 0.473 µM; TGI [60]: 4.17 µM; TGI [61]: 4.29 µM; TGI [62]: 3.73 µM; TGI [63]: 14.6 µM; TGI [64]: 12.1 µM; TGI [65]: 7.24 µM; TGI [66]: 3.35 µM; TGI [67]: 3.31 µM; TGI [68]: 4.71 µM; TGI [69]: 10.7 µM

Which results are given for `CN(C)CC1CC/C(=C\c2ccc(Cl)cc2)C1=O` (stereo unspecified)?
TGI [1]: 24 µM; TGI [2]: 4.46 µM; TGI [3]: 28.7 µM; TGI [4]: 22.5 µM; TGI [6]: 26.6 µM; TGI [8]: 13.7 µM; TGI [11]: 40.4 µM; TGI [12]: 6.94 µM; TGI [70]: 4.13 µM; TGI [13]: 7.47 µM; TGI [14]: 25.7 µM; TGI [15]: 14 µM; TGI [16]: 21.3 µM; TGI [17]: 10.4 µM; TGI [20]: 22.5 µM; TGI [21]: 18.8 µM; TGI [22]: 6.79 µM; TGI [23]: 34.3 µM; TGI [24]: 12 µM; TGI [71]: 20.7 µM; TGI [26]: 12.5 µM; TGI [27]: 31.1 µM; TGI [28]: 5.15 µM; TGI [29]: 12.8 µM; TGI [30]: 41.5 µM; TGI [31]: 21.7 µM; TGI [33]: 30.1 µM; TGI [34]: 35.8 µM; TGI [35]: 27.3 µM; TGI [36]: 20.5 µM; TGI [37]: 7.44 µM; TGI [72]: 38.1 µM; TGI [38]: 34 µM; TGI [39]: 35.5 µM; TGI [40]: 12.9 µM; TGI [41]: 16.1 µM; TGI [42]: 8.66 µM; TGI [43]: 41.6 µM; TGI [44]: 29.1 µM; TGI [45]: 30.1 µM; TGI [46]: 21.7 µM; TGI [49]: 6.87 µM; TGI [50]: 2.88 µM; TGI [51]: 12.9 µM; TGI [52]: 21.8 µM; TGI [53]: 23.7 µM; TGI [54]: 18.7 µM; TGI [55]: 24.5 µM; TGI [56]: 2.89 µM; TGI [57]: 9.75 µM; TGI [58]: 10.7 µM; TGI [59]: 2.75 µM; TGI [60]: 42.1 µM; TGI [61]: 15 µM; TGI [62]: 19.8 µM; TGI [63]: 29.7 µM; TGI [64]: 30.5 µM; TGI [65]: 19.9 µM; TGI [66]: 2.41 µM; TGI [67]: 24.2 µM; TGI [69]: 9.41 µM
